Measurements as given in US12606561B2, “Substituted pyrazolo[1,5-a][1,3,5]triazines as CDK inhibitors” (QURIENT CO., LTD., priority 2018, dated 2026).

Key:
A2780 = A2780 viability assay (CellTiter-Glo, 72 hours); assay type: cell-based; conditions: Homo sapiens; A2780 cells
How it was run: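 After a 24 h attachment period, cells received a 0.0015–10 uM compound titration and were incubated 72 h at 37° C, 5% CO2. Viability came from CellTiter-Glo luminescence measured in duplicate.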

OVCAR-3 = OVCAR-3 viability assay (CellTiter-Glo, 72 hours); assay type: cell-based; conditions: Homo sapiens; OVCAR-3 cells
Description: Human […] cell line, MV4-11_(ATCC, Cat #CRL-9591), NSCLC (Non-small cell lung cancer) cell line H460 (ATCC, Cat #HTB-177), A2780 (ECACC, Cat #93112519) and OVCAR-3(ATCC, Cat #HTB-161) were obtained from ATCC. Cells were grown in RPMI-1640 media (Invitrogen, Cat #22400-089) supplemented with 10% FBS (Invitrogen, Cat #10099141) and 1% penicillin/streptomycin (Invitrogen, Cat #15070063) and cultured at 37° C., 5% CO2 in a humidified chamber. All cell lines were routinely tested for mycoplasma.
To effect of the CDK7 inhibitor to inhibit the growth of target cancer cells, viability assay were conducted a 72 hour time period. Briefly, the candidate cell line was plated in 96 well plate at the following density of cells respectively. 1×10^4 cells/well for MV4-11, 5×10^3 for H460 and OVCAR-3, and 1×10^3 for A2780. After 24 hours, the cells were treated with various concentrations of the compound (ranging from 0.0015 uM to 10 uM). DMSO solvent without compound served as a control and final DMSO concentration lest than 0.1%. After 72 hours of incubation at 37° C., 5% CO2 incubator, cells were analyzed for the viability using the CellTiter-Glo Luminescent Cell Viability Assay (Promega, Cat #G7570). All viability assays were performed in duplicate and Luminescence was read using an Envision (Perkin Elmer, USA). Data was analyzed using XLfit software.

CDK7/Cyclin H/MNAT1 = target: T1, CDK7/Cyclin H/MNAT1 (Homo sapiens, UniProt P50613); assay: Enzymatic assay for CDK7 (LANCE Ultra kinase assay, FRET based); assay type: biochemical; conditions: for IC50: ATP at Km
T1 construct: purchased Invitrogen PR6749B
How it was run: (§1)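 With ATP set at its Km, compounds were tested against purified CDK/cyclin complexes phosphorylating a ULight-labeled peptide. Signal came from FRET between the peptide and a Europium-labeled anti-phospho-antibody.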

CDK2/Cyclin A = target: T2, CDK2/Cyclin A (Homo sapiens, UniProt P24941); assay: Enzymatic assay for CDK2 (LANCE Ultra kinase assay, FRET based); assay type: biochemical; conditions: ATP at Km
T2 construct: purchased Invitrogen PV6290
How it was run: (§2)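 TR-FRET kinase assay at ATP Km with ULight-MBP peptide (68 nM) and Eu-anti-phospho-MBP antibody; CDK2/Cyclin A at […], CDK5/p25 at […]. 8-dose 4-fold compound dilutions; 60 min kinase reaction at 23° C., EDTA stop, 60 min detection, read at 615/665 nm.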

CDK1/Cyclin B = target: T3, CDK1/Cyclin B (Homo sapiens, UniProt P06493); assay: Enzymatic assay for CDK1 (LANCE Ultra kinase assay, FRET based); assay type: biochemical; conditions: ATP at Km; read-out: CDK1 enzymatic activity IC50
T3 construct: purchased Invitrogen PR4768C
How it was run: as §1

CDK5/p25 = target: T4, CDK5/p25 (Homo sapiens, UniProt Q00535); assay: Enzymatic assay for CDK5 (LANCE Ultra kinase assay, FRET based); assay type: biochemical; conditions: ATP at Km
T4 construct: purchased Invitrogen PR8543B
How it was run: as §2

T1 sequence (P50613 whole entry): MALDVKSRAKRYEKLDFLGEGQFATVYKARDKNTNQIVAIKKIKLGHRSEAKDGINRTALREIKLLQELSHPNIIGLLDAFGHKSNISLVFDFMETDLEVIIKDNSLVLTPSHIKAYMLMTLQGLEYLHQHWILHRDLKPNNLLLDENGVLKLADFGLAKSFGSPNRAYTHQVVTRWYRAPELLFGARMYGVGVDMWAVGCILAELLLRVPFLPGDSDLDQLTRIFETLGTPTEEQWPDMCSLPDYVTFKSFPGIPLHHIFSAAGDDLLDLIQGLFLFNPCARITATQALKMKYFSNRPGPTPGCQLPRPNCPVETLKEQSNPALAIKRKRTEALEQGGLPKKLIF
T1 sequence (P51946 whole entry partner): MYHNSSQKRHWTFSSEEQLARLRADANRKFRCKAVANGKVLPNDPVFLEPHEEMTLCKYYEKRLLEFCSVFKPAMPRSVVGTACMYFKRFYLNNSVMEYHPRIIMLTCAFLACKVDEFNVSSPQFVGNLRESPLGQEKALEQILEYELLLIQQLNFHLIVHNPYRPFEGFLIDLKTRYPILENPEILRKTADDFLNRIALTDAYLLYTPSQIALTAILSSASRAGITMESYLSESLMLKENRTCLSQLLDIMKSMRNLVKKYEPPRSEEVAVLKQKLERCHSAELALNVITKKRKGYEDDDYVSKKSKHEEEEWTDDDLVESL
T1 sequence (P51948 whole entry partner): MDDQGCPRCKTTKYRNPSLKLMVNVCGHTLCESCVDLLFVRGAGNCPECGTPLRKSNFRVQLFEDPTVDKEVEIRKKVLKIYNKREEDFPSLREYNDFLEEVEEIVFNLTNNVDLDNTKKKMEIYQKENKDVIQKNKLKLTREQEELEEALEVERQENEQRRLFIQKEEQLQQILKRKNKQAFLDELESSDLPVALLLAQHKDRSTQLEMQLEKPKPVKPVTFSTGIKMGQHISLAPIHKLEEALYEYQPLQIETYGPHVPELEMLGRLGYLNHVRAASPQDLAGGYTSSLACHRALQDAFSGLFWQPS
T3 sequence (P06493 whole entry): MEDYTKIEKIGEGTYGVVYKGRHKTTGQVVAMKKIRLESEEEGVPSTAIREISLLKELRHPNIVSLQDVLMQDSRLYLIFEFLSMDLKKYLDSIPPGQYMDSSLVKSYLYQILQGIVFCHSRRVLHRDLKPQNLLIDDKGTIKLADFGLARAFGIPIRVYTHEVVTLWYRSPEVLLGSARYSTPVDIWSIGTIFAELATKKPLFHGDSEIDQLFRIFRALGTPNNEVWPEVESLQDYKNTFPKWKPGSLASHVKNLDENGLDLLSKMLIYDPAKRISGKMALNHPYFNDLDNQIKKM
T3 sequence (P14635 whole entry partner): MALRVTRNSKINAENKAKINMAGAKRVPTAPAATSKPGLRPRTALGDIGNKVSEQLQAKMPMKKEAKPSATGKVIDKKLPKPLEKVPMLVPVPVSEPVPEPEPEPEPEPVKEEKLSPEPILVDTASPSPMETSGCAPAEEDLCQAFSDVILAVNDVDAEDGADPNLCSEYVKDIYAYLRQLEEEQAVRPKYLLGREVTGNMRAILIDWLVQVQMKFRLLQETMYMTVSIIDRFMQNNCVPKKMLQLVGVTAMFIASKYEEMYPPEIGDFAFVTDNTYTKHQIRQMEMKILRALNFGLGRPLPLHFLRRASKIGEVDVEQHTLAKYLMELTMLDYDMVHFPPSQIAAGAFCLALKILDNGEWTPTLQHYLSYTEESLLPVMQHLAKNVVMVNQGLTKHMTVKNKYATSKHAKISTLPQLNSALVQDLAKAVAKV
T4 sequence (Q00535 whole entry): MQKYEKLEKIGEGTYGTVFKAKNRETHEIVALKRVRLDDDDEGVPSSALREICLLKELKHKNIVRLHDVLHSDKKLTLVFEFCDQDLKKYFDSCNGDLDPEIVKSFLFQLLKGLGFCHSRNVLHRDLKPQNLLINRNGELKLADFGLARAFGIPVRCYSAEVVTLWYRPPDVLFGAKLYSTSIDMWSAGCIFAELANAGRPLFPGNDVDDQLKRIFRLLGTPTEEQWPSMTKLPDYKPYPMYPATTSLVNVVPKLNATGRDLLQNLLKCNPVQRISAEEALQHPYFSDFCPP
T4 sequence (Q15078 99-307 partner limits assumed): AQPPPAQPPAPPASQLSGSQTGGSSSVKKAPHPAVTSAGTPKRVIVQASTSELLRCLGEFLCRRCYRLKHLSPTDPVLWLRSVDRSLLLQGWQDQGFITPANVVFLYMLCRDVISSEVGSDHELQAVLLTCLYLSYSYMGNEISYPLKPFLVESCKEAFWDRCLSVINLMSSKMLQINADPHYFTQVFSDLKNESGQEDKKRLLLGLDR

Compound	IC50 (A2780) [nM]	IC50 (OVCAR-3) [nM]	IC50 (CDK7/Cyclin H/MNAT1) [nM]	CDK1/CDK7: Selectivity of CDK7 inhibition over CDK1 inhibition (CDK7/Cyclin H/MNAT1)	CDK2/CDK7: Selectivity of CDK7 inhibition over CDK2 inhibition (CDK7/Cyclin H/MNAT1)	CDK5/CDK7: Selectivity of CDK7 inhibition over CDK5 inhibition (CDK7/Cyclin H/MNAT1)	IC50 (CDK2/Cyclin A) [nM]	IC50 (CDK1/Cyclin B) [nM]	IC50 (CDK5/p25) [nM]
C=CC(=O)Nc1ccc2c(-c3ccccc3CNc3nc(N4C5CCC4CC(O)C5)nc4c(C(C)C)cnn34)nccc2c1 (stereo not drawn) [Compound 114]	1000 to 10000	< 1000	< 100	A (A indicates [fold] > 500)	A (A indicates [fold] > 500)	A (A indicates [fold] > 500)	> 1000	> 1000	> 1000
C=C(F)C(=O)Nc1ccc2c(-c3ccccc3CNc3nc(NC4CC(OC)C4)nc4c(C(C)C)cnn34)nccc2c1 (stereo not drawn) [Compound 99]	< 1000	< 1000	100 to 1000	B (B indicates 50 < [fold] ≤ 500)	B (B indicates 50 < [fold] ≤ 500)	B (B indicates 50 < [fold] ≤ 500)	> 1000	> 1000	> 1000
CC(C)c1cnn2c(NCc3ccccc3-c3nccc4cc(NC(=O)/C=C/CN(C)C)ccc34)nc(NC3CCS(=O)(=O)CC3)nc12 [Compound 107]	< 1000	< 1000	100 to 1000	B (B indicates 50 < [fold] ≤ 500)	B (B indicates 50 < [fold] ≤ 500)	B (B indicates 50 < [fold] ≤ 500)	> 1000	> 1000	> 1000
C=CC(=O)Nc1ccc2c(-c3ccccc3CNc3nc(NC4CCC(C)(C)NC4)nc4c(C(C)C)cnn34)nccc2c1 (stereo not drawn) [Compound 178]	< 1000	< 1000	< 100	A (A indicates [fold] > 500)	A (A indicates [fold] > 500)	A (A indicates [fold] > 500)	> 1000	> 1000	> 1000
C=C(F)C(=O)Nc1ccc2c(-c3ccccc3CNc3nc(N4CCC(OC(C)C)CC4)nc4c(C(C)C)cnn34)nccc2c1 [Compound 89]	1000 to 10000	1000 to 10000	> 1000	C (C indicates [fold] ≤ 50)	C (C indicates [fold] ≤ 50)	C (C indicates [fold] ≤ 50)	> 1000	> 1000	> 1000
C=C(C)C(=O)Nc1ccc2c(-c3ccccc3CNc3nc(NC4CCC(C)(C)NC4)nc4c(C(C)C)cnn34)nccc2c1 (stereo not drawn) [Compound 181]	< 1000	< 1000	< 100	A (A indicates [fold] > 500)	A (A indicates [fold] > 500)	A (A indicates [fold] > 500)	> 1000	> 1000	> 1000
C=CC(=O)Nc1cccc2ccc(-c3cccc(C)c3CNc3nc(N[C@H]4CC[C@H](OC)CC4)nc4c(C(C)C)cnn34)nc12 [Compound 112]	< 1000	< 1000	100 to 1000	B (B indicates 50 < [fold] ≤ 500)	B (B indicates 50 < [fold] ≤ 500)	B (B indicates 50 < [fold] ≤ 500)	> 1000	> 1000	> 1000
CC(C)c1cnn2c(NCc3ccccc3-c3nccc4cc(NC(=O)/C=C/CN(C)C)ccc34)nc(N3CCc4sccc4C3)nc12 [Compound 101]	< 1000	< 1000	100 to 1000	B (B indicates 50 < [fold] ≤ 500)	B (B indicates 50 < [fold] ≤ 500)	B (B indicates 50 < [fold] ≤ 500)	> 1000	> 1000	> 1000
C=C(F)C(=O)Nc1ccc2c(-c3ccccc3CNc3cc(NC4CCC(OC)CC4)nc4c(C(C)C)cnn34)nccc2c1 (stereo not drawn) [Compound 81]	< 1000	< 1000	100 to 1000	B (B indicates 50 < [fold] ≤ 500)	B (B indicates 50 < [fold] ≤ 500)	B (B indicates 50 < [fold] ≤ 500)	> 1000	> 1000	> 1000
CC(C)c1cnn2c(NCc3ccccc3-c3nccc4cc(NC(=O)/C=C/CN(C)C)ccc34)cc(N3CCC4(CC3)OCCO4)nc12 [Compound 124]	< 1000	< 1000	< 100	B (B indicates 50 < [fold] ≤ 500)	B (B indicates 50 < [fold] ≤ 500)	B (B indicates 50 < [fold] ≤ 500)	> 1000	> 1000	> 1000
CC(C)c1cnn2c(NCc3ccccc3-c3nccc4cc(NC(=O)/C=C/CN(C)C)ccc34)nc(N[C@@H]3CC[C@@H](C)NC3)nc12 [Compound 154]	< 1000	1000 to 10000	< 100	A (A indicates [fold] > 500)	A (A indicates [fold] > 500)	A (A indicates [fold] > 500)	> 1000	> 1000	> 1000
CC(C)c1cnn2c(NCc3ccccc3-c3nccc4cc(NC(=O)/C=C/CN(C)C)ccc34)nc(N3CCC4(CCOC4)CC3)nc12 [Compound 117]	< 1000	< 1000	100 to 1000	B (B indicates 50 < [fold] ≤ 500)	B (B indicates 50 < [fold] ≤ 500)	B (B indicates 50 < [fold] ≤ 500)	> 1000	> 1000	> 1000
C=C(F)C(=O)Nc1ccc2c(-c3ccccc3CNc3nc(N[C@@H]4CCCN(C)C4)nc4c(C(C)C)cnn34)nccc2c1 [Compound 173]	< 1000	< 1000	< 100	A (A indicates [fold] > 500)	A (A indicates [fold] > 500)	A (A indicates [fold] > 500)	> 1000	> 1000	> 1000
C=C(F)C(=O)Nc1ccc2c(-c3ccccc3CNc3nc(NCC4CCNCC4O)nc4c(C(C)C)cnn34)nccc2c1 (stereo not drawn) [Compound 160]	< 1000	< 1000	< 100	A (A indicates [fold] > 500)	A (A indicates [fold] > 500)	A (A indicates [fold] > 500)	> 1000	> 1000	> 1000
C=C(F)C(=O)Nc1ccc2c(-c3ccccc3CNc3nc(N[C@H]4CN5CCC4CC5)nc4c(C(C)C)cnn34)nccc2c1 [Compound 176]	< 1000	< 1000	< 100	A (A indicates [fold] > 500)	A (A indicates [fold] > 500)	A (A indicates [fold] > 500)	> 1000	> 1000	> 1000
